Experiments:
[1] = tested on: Soya plants; experiment: Phytotoxicity determination on soya; format: in vivo; settings: 200 L/ha of 1% w/w emulsion (EC 90% w/w solvent, 10% w/w emulsifier), after 14 days
Description: Soya plants grown under standard greenhouse conditions in the growth stage 13 were treated with aqueous emulsions in a spray cabin. The resulting plant spray dosage represented an application rate of 200 L/ha of 1% w/w emulsion, corresponding to the application of 2 L/ha of the emulsifiable concentrate. […] The experimental period lasted 14 days, during which time the Soya plants were given optimum watering, nutrients, and light.
An assessment of 1 to 10% phytotoxicity is the limit of acceptable plant damage by farmers.

[2] = Water solubility of the solvent (method based on CIPAC MT157.1 and OECD 105); format: physicochemical; settings: solvent in water, visual assessment of undissolved solvent
Description: The water solubility of the solvent was determined according to a method based on CIPAC MT157.1 and OECD 105 via the visual assessment of undissolved solvent in water after vigorous mixing and standing. Herein, various amounts of solvent and water were mixed with vigorous shaking in a glass-stoppered graduated cylinder or separating funnel, followed by standing for at least 30 min to enable separation. […] This method can be repeated with various amounts of solvent and water to enable the determination of the water-solubility of the solvent.

SMILES | phytotoxicity (visual, scale 0% to 100%) [1] [%] | water solubility [2] [% w/w]
CCCCC(CC)COC(=O)C(C)O (stereo not shown) [2-Ethyl hexyl lactate, 2-Ethylhexyl Lactate] | 30 | –
CCCCCCCCCC(=O)N(C)C [Dimethyl decanamide, dimethyl decanamide] | 50 | –
COc1ccc(C=O)cc1 [4-anisaldehyde] | 0 | 0.20

Reference: US20260256133A1, “AN EMULSIFIABLE CONCENTRATE HAVING A (SUBSTITUTED) BENZALDEHYDE-BASED SOLVENT SYSTEM” (BASF SE, priority 2022, published 2026)
